The results in this text go back to US20190343828A1, “CAMPTOTHECIN PEPTIDE CONJUGATES” (SEATTLE GENETICS, INC., priority 2018, published 2019).

The subject of assay [1] is CD30+ parental DEL lymphoma cell line. Description: In vitro cytotoxicity, CellTiter-Glo 96 h, DEL. Type of assay: cell-based. The note with it: Table 2, CD30+ parental DEL. How it is done:
(§1) The parental DEL lymphoma cell line was cultured in the presence of brentuximab vedotin to induce over-expression of the MDR phenotype, resulting in the DEL brentuximab vedotin resistant line (DEL-BVR). Brentuximab vedotin, which is Ag2-vc-MMAE (DAR=4) was included as a control. Ex_4-1 refers to MP-PEG4-VKG-7-MAD-MDCPT.

Assay [2] has as its system CD30/MDR+ DEL-BVR cell line (DEL brentuximab vedotin resistant). Description: In vitro cytotoxicity, CellTiter-Glo 96 h, DEL-BVR. The note with it: Table 2, CD30/MDR+ DEL-BVR. It is filed as cell-based. How it is done: as §1
The subject of assay [3] is B-lymphocyte cancer cells (U266). Nature of the assay: In vitro cytotoxicity, CellTiter-Glo 96 h, U266. The note with it: Homo sapiens, U-266, read-out: Cytotoxic potency as free drug, IC50, U266.
Description: (§2) In vitro potency was assessed on multiple cancer cell lines. All cell lines were authenticated by STR profiling at IDEXX Bioresearch and cultured for no more than 2 months after resuscitation. Cells cultured in log-phase growth were seeded for 24 hours in 96-well plates containing 150 μl RPMI 1640 supplemented with 20% FBS. Serial dilutions of antibody-drug conjugates in cell culture media were prepared at 4× working concentrations, and 50 μl of each dilution was added to the 96-well plates. Following addition of test articles, cells were incubated with test articles for 4 days at 37° C. After 96 hours, growth inhibition was assessed by CellTiter-Glo® (Promega, Madison, Wis.) and luminescence was measured on a plate reader.
Cell viability was determined by CellTiter-Glo staining after 96 h exposure to ADC. […] Ag1 is an antibody targeting a ubiquitous and readily internalizable antigen on cancer cells, Ag2 is cAC10 antibody targeting CD30(+) cancer cells, Ag3 is h1F6 antibody targeting CD70(+) cancer cells, Ag4 is hMEM102 antibody targeting CD48(+) cancer cells, Ag5 is h20F3 antibody targeting NTB-A expressing cancer cells, and h00 is a non-binding control antibody.
Assay [4] concerns renal carcinoma cells (786-O). Description: In vitro cytotoxicity, CellTiter-Glo 96 h, 786-O. To be noted: Homo sapiens, 786-0, read-out: Cytotoxic potency (IC50 class), 786-O.
Assay [5] concerns pancreatic cancer cells (BxPC3). Description: In vitro cytotoxicity, CellTiter-Glo 96 h, BxPC3. To be noted: Homo sapiens, BXPC-3, read-out: Cytotoxic potency (IC50 class), BxPC3. For orientation: In ATP-based viability assays light output follows the ATP content of the culture.
Description: as §2
(§3) Cell viability was determined by CellTiter-Glo staining after 96 h exposure to ADC.
Assay [6] concerns acute promyelocytic leukemia cells (HL-60). Nature of the assay: In vitro cytotoxicity, CellTiter-Glo 96 h, HL-60. To be noted: Homo sapiens, HL-60, read-out: Cytotoxic potency (IC50 class), HL-60.
Assay [7] deals with multiple myeloma cells (MM.1R). Description: In vitro cytotoxicity, CellTiter-Glo 96 h, MM.1R. To be noted: read-out: Cytotoxic potency (IC50 class), MM.1R.
Assay [8] deals with Burkitt's lymphoma cells (Ramos). Nature of the assay: In vitro cytotoxicity, CellTiter-Glo 96 h, Ramos. The note with it: Homo sapiens, read-out: Cytotoxic potency as free drug, IC50, Ramos.
Description: as §2, §3
The test system of assay [9] is Hodgkin's lymphoma cells (L540cy). Nature of the assay: In vitro cytotoxicity, CellTiter-Glo 96 h, L540cy. To be noted: read-out: Cytotoxic potency (IC50 class), L540cy.
Description: as §2, §3
In assay [10] the test system is acute myeloid leukemia cells (MOLM13). Nature of the assay: In vitro cytotoxicity, CellTiter-Glo 96 h, MOLM13. To be noted: Homo sapiens, MOLM-13, read-out: Cytotoxic potency as free drug, IC50, MOLM13.
Description: as §2, §3
Assay [11] concerns multiple drug resistant acute promyelocytic leukemia cells (HL-60/RV). Nature of the assay: In vitro cytotoxicity, CellTiter-Glo 96 h, HL60/RV. The note with it: Homo sapiens, HL-60, read-out: Cytotoxic potency (IC50 class), HL60/RV.
Description: as §2, §3
Assay [12] deals with melanoma cells (SK-MEL-5). Nature of the assay: In vitro cytotoxicity, CellTiter-Glo 96 h, SK-MEL-5. To be noted: Homo sapiens, SK-MEL-5, read-out: Cytotoxic potency as free drug, IC50, SK-MEL-5.
Assay [13] deals with B-lymphocyte cancer cells (SU-DHL-4). Nature of the assay: In vitro cytotoxicity, CellTiter-Glo 96 h, SU-DHL-4. The note with it: Homo sapiens, SU-DHL-4, read-out: Cytotoxic potency as free drug, IC50, SU-DHL-4.
The mark [14] stands for this setting: 1000 ng/mL, relative to untreated cells.
Where [15] appears, read: DAR in parenthesis of label, 96 h.

“Brentuximab vedotin [Ag2-vcMMAE (4), reference compound]”: the “percent cells remaining at highest concentration tested, DEL” value in [1] (setting [14]) was “(1) percent”. The “IC50, DEL” value in assay [1] (setting [15]) was 0.0005 µg/mL. For the same molecule, in assay [2] (setting [14]), the “percent cells remaining at highest concentration tested, DEL-BVR” value was “(93) percent”. Besides, the “IC50, DEL-BVR” value in assay [2] (setting [15]) is over 1 µg/mL.
With `CCC(CC)Cc1c2c(nc3cc4c(cc13)OCO4)-c1cc3c(c(=O)n1C2)COC(=O)[C@]3(O)CC` [Compound 6g], the IC50 in assay [3] lay in the range of 1 to 10 nM; in assay [4], 1 to 10 nM; in [5], 1 to 10 nM; in [6], 10 to 100 nM; in assay [7] it was 1 to 10 nM; in assay [8], 0.1 to 1 nM. For the same molecule, the IC50 in assay [9], in [10], in assay [11], in [12] and in [13] was 1 to 10 nM each time.
Consider `CC[C@@]1(O)C(=O)OCc2c1cc1n(c2=O)Cc2c-1nc1cc3c(cc1c2CC(C)(C)C)OCO3` [Compound 6n], for which the IC50 is 1 to 10 nM in assay [3]; 1 to 10 nM in assay [4]; 1 to 10 nM in assay [5]; 10 to 100 nM in assay [6]; 1 to 10 nM in assay [7]; 1 to 10 nM in assay [8]. Further, the IC50 in assay [9], in assay [10], in assay [11], in assay [12] and in assay [13] was 1 to 10 nM each time.
As for `CC[C@@]1(O)C(=O)OCc2c1cc1n(c2=O)Cc2c-1nc1cc3c(cc1c2CNCCC(c1ccccc1)c1ccccc1)OCO3` [Compound 5o], the IC50 in assay [3] was in the range of 10 to 100 nM; in assay [4] it was 10 to 100 nM; in assay [5] it was 10 to 100 nM; in assay [6], 100 to 1000 nM; in [7], 10 to 100 nM; in assay [8], 1 to 10 nM. In addition, the IC50 lay within 1 to 10 nM in assay [9]; 10 to 100 nM in [10]; 10 to 100 nM in [11]; 10 to 100 nM in assay [12]; 10 to 100 nM in [13].
For `CC[C@@]1(O)C(=O)OCc2c1cc1n(c2=O)Cc2c-1nc1cc3c(cc1c2CNc1ccc(F)cc1)OCO3` [Compound 5r], the IC50 in assay [3] is 1 to 10 nM; in [4], 1 to 10 nM; in assay [5], 1 to 10 nM; in [6] it was 10 to 100 nM; in assay [7], 1 to 10 nM; in assay [8] it was 1 to 10 nM. The IC50 in [9] was 1 to 10 nM; in assay [10], 10 to 100 nM; in [11], 10 to 100 nM; in [12] it was 1 to 10 nM; in assay [13], 1 to 10 nM.
Regarding `CC[C@@]1(O)C(=O)OCc2c1cc1n(c2=O)Cc2c-1nc1cc3c(cc1c2CN(C)CCNC)OCO3` [Compound 5x], the IC50 in assay [3] was 10 to 100 nM; in assay [4], 10 to 100 nM; in assay [5], 100 to 1000 nM; in assay [6] it was 100 to 1000 nM; in assay [7] it was 10 to 100 nM; in assay [8], 10 to 100 nM. The IC50 in assay [9] fell in the range of 10 to 100 nM; in assay [10] it was 10 to 100 nM; in assay [11] it was 100 to 1000 nM; in assay [12], 10 to 100 nM; in assay [13] it was 10 to 100 nM.
With `CC[C@@]1(O)C(=O)OCc2c1cc1n(c2=O)Cc2c-1nc1cc3c(cc1c2CNC1CCCCC1)OCO3` [Compound 5d], the IC50 lay within 1 to 10 nM in assay [3]; 1 to 10 nM in [4]; 1 to 10 nM in [5]; 10 to 100 nM in [6]; 1 to 10 nM in [7]; 1 to 10 nM in assay [8]. Moreover, the IC50 in [9], in assay [10], in assay [11], in assay [12] and in assay [13] was 1 to 10 nM each time.
On to `CC[C@@]1(O)C(=O)OCc2c1cc1n(c2=O)Cc2c-1nc1cc3c(cc1c2C1CCCC1)OCO3` [Compound 6i], for which the IC50 was in the range of 1 to 10 nM in [3]; 1 to 10 nM in assay [4]; 1 to 10 nM in [5]; 10 to 100 nM in assay [6]; 1 to 10 nM in assay [7]; 0.1 to 1 nM in assay [8]. Also, the IC50 in [9] was 1 to 10 nM; in [10], 1 to 10 nM; in assay [11], 1 to 10 nM; in [12] it was 1 to 10 nM; in assay [13], 0.1 to 1 nM.
